US20090105283A1, “3-HYDROQUINAZOLIN-4-ONE DERIVATIVES FOR USE AS STEAROYL CoA DESATURASE INHIBITORS” (priority 2007, published 2009)

Biological target: T1, stearoyl-CoA desaturase (SCD) (Rattus norvegicus, UniProt P07308)
T1 construct: The microsomes were quickly thawed and added to assay buffer so that a concentration of 0.4 mg/ml was achieved; from tissue
T1 sequence (P07308 1-358): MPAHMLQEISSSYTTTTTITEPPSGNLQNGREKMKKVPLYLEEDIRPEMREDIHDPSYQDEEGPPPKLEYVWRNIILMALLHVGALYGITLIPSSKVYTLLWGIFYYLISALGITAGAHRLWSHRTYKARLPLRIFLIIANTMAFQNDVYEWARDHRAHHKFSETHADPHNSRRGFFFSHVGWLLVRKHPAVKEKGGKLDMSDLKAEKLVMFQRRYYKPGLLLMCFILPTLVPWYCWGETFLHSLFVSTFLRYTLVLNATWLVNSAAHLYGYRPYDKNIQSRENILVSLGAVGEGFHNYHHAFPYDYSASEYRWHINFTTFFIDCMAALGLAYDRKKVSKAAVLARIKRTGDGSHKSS
Experiment: SCD assay with rat liver microsomes ([3H]stearoyl CoA, adapted from Talamo and Bloch)
Format: biochemical
Settings: Table 2 (Example 21, procedures of Example 20); rat liver microsomes, [3H]stearoyl CoA substrate
In short: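 Liver microsomes came from diet-induced male Sprague Dawley rats and were used at 0.2 mg/ml final. Assay buffer was Tris pH 7.2 with NADH, ATP, CoA, MgCl2 and 0.1% BSA. Compounds were preincubated 30 min, then reacted 45 min at room temperature with [3H]stearoyl-CoA; after TCA stop and Bio-Bead cleanup, supernatant radioactivity was counted by scintillation.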

Point of comparison: `C[C@@H](c1ccc(Cl)c(C(F)(F)F)c1)n1cnc2ccc(NC(=O)CO)cc2c1=O` [compound 102, (S)—N-(3-(1-(4-chloro-3-(trifluoromethyl)phenyl)ethyl)-4-oxo-3,4-dihydroquinazolin-6-yl)-2-hydroxyacetamide], IC50 480 nM. Against it:
- O=C(NCCO)c1ccc2c(=O)n(Cc3ccc(Cl)cc3)cnc2c1 [compound 92, 3-(4-chlorobenzyl)-N-(2-hydroxyethyl)-4-oxo-3,4-dihydroquinazoline-7-carboxamide] — 2.1-fold higher, 1000 nM
- COCCNC(=O)c1ccc2c(=O)n(Cc3ccc(Cl)cc3)cnc2c1 [compound 93, 3-(4-chlorobenzyl)-N-(2-methoxyethyl)-4-oxo-3,4-dihydroquinazoline-7-carboxamide] — 6.5-fold higher, 3100 nM
- NCC(=O)Nc1ccc2ncn(Cc3ccc(Cl)c(Cl)c3)c(=O)c2c1 [compound 94, 2-amino-N-(3-(3,4-dichlorobenzyl)-4-oxo-3,4-dihydroquinazolin-6-yl)acetamide] — 2.7-fold higher, 1300 nM
- O=C(CCO)Nc1ccc2ncn(Cc3ccc(Cl)c(Cl)c3)c(=O)c2c1 [compound 95, N-(3-(3,4-dichlorobenzyl)-4-oxo-3,4-dihydroquinazolin-6-yl)-3-hydroxypropanamide] — 25-fold higher, 12000 nM
- O=C(Nc1ccc2ncn(Cc3ccc(Cl)c(Cl)c3)c(=O)c2c1)[C@H](O)Cc1ccccc1 [compound 96, (R)—N-(3-(3,4-dichlorobenzyl)-4-oxo-3,4-dihydroquinazolin-6-yl)-2-hydroxy-3-phenylpropanamide] — 8.1-fold higher, 3900 nM
- O=C(Nc1ccc2ncn(Cc3ccc(Cl)c(Cl)c3)c(=O)c2c1)[C@@H](O)Cc1ccccc1 [compound 97, (S)—N-(3-(3,4-dichlorobenzyl)-4-oxo-3,4-dihydroquinazolin-6-yl)-2-hydroxy-3-phenylpropanamide] — 10-fold higher, 4800 nM
- O=C(C[C@H](O)c1ccccc1)Nc1ccc2ncn(Cc3ccc(Cl)c(Cl)c3)c(=O)c2c1 [compound 98, (S)—N-(3-(3,4-dichlorobenzyl)-4-oxo-3,4-dihydroquinazolin-6-yl)-3-hydroxy-3-phenylpropanamide] — 3.8-fold higher, 1800 nM
- O=C(C[C@@H](O)c1ccccc1)Nc1ccc2ncn(Cc3ccc(Cl)c(Cl)c3)c(=O)c2c1 [compound 99, (R)—N-(3-(3,4-dichlorobenzyl)-4-oxo-3,4-dihydroquinazolin-6-yl)-3-hydroxy-3-phenylpropanamide] — 3.5-fold higher, 1700 nM
- O=C(Nc1ccc2ncn(Cc3ccc(Cl)c(Cl)c3)c(=O)c2c1)[C@@H](O)c1ccccc1 [compound 100, (S)—N-(3-(3,4-dichlorobenzyl)-4-oxo-3,4-dihydroquinazolin-6-yl)-2-hydroxy-2-phenylacetamide] — 4.8-fold higher, 2300 nM
- O=C(Nc1ccc2ncn(C/C=C/COc3cc(Cl)ccc3Cl)c(=O)c2c1)OCc1ccccc1 [compound 103, (E)-benzyl 3-(4-(2,5-dichlorophenoxy)but-2-enyl)-4-oxo-3,4-dihydroquinazolin-6-ylcarbamate] — within 1.5-fold, 380 nM
- O=C(Nc1ccc2ncn(Cc3ccc(Cl)c(Cl)c3)c(=O)c2c1)C(O)CO (stereo not shown) [compound 106, N-(3-(3,4-dichlorobenzyl)-4-oxo-3,4-dihydroquinazolin-6-yl)-2,3-dihydroxypropanamide] — 8.1-fold higher, 3900 nM
- O=C(O)C(=O)Nc1ccc2ncn(Cc3ccc(Cl)c(Cl)c3)c(=O)c2c1 [compound 107, 2-(3-(3,4-dichlorobenzyl)-4-oxo-3,4-dihydroquinazolin-6-ylamino)-2-oxoacetic acid] — 1.9-fold higher, 890 nM
